According to US7601674B2, “α-oxygenated or α-thiolated carboxylic acid phenethylamide derivatives” (priority 2001, dated 2009):

Assays:
Type in all cases: in vivo
Phytophthora [1] = experiment: D-2a Action against Phytophthora on tomato plants, residual-protective action; settings: test D-2a residual-protective, untreated plants attack 80-100%, read-out: inhibition of fungal infestation
Description: (§1) D-2: Action Against Phytophthora on Tomato Plants
(§2) a) Residual-protective Action
(§3) After a cultivation period of 3 weeks, tomato plants are sprayed with a spray mixture (0.02% active ingredient) prepared from a wettable powder formulation of the test compound. After 48 hours, the treated plants are infected with a sporangia suspension of the fungus. Fungus infestation is evaluated after incubation of the infected plants for 5 days at 90-100% relative humidity and +20° C.

Phytophthora [2] = experiment: D-2b Action against Phytophthora on tomato plants, systemic action; settings: test D-2b systemic (soil drench), untreated plants attack 80-100%, read-out: inhibition of fungal infestation
Description: as §1
as §3, with “watered” for “sprayed”, “ingredient based on the volume of the soil)” for “ingredient)”, “compound. […]” for “compound.”, “96” for “48”, “4” for “5”

Plasmopara viticola [3] = experiment: D-1b Action against Plasmopara viticola on vines, residual-curative action; settings: vine seedlings, test D-1b residual-curative, untreated plants attack 80-100%, read-out: inhibition of fungal infestation
Description: (§4) D-1: Action Against Plasmopara viticola on Vines
b) Residual-curative Action
Vine seedlings are infected at the 4- to 5-leaf stage with a sporangia suspension of the fungus. After incubation for 24 hours in a humidity chamber at 95-100% relative humidity and […], the infected plants are dried and sprayed with a spray mixture (0.02% active ingredient) prepared from a wettable powder formulation of the test compound. After the spray coating has dried, the treated plants are placed in the humidity chamber again. Fungus infestation is evaluated 6 days after infection.

Plasmopara viticola [4] = experiment: D-1a Action against Plasmopara viticola on vines, residual-protective action; settings: vine seedlings, test D-1a residual-protective, untreated plants attack 80-100%, read-out: inhibition of fungal infestation
Description: as §4, §2
Vine seedlings are sprayed at the 4- to 5-leaf stage with a spray mixture (0.02% active ingredient) prepared from a wettable powder formulation of the test compound. After 24 hours, the treated plants are infected with a sporangia suspension of the fungus. Fungus infestation is evaluated after incubation for 6 days at 95-100% relative humidity and +20° C.

Phytophthora [5] = experiment: D-3b Action against Phytophthora on potato plants, systemic action; settings: potato plants (Bintje), test D-3b systemic (soil drench), untreated plants attack 80-100%, read-out: inhibition of fungal infestation
Description: (§5) D-3: Action Against Phytophthora on Potato Plants
2-3 week old potato plants (Bintje variety) are watered with a spray mixture (0.02% active ingredient based on the volume of the soil) prepared from a wettable powder formulation of the test compound. […] After 48 hours, the treated plants are infected with a sporangia suspension of the fungus. Fungus infestation is evaluated after incubation of the infected plants for 4 days at 90-100% relative humidity and +20° C. Fungal infestation is effectively controlled with compounds of Tables 1 to 64.

Phytophthora [6] = experiment: D-3a Action against Phytophthora on potato plants, residual-protective action; settings: potato plants (Bintje), test D-3a residual-protective, untreated plants attack 80-100%, read-out: inhibition of fungal infestation
Description: as §5, §2
2-3 week old potato plants (Bintje variety) are sprayed with a spray mixture (0.02% active ingredient) prepared from a wettable powder formulation of the test compound. After 48 hours, the treated plants are infected with a sporangia suspension of the fungus. Fungus infestation is evaluated after incubation of the infected plants for 4 days at 90-100% relative humidity and +20° C.

Measured: inhibition at 200 ppm

C#CCOc1ccc(CCNC(=O)C(O)COc2ccc(Cl)cc2)cc1OC (stereo not shown) [Compound E1.24, 3-(4-Chloro-phenoxy)-2-hydroxy-N-[2-(3-methoxy-4-prop-2-ynyloxy-phenyl)-ethyl]-propionamide]
80 to 100%: Phytophthora [1] | Phytophthora [2] | Plasmopara viticola [3] | Plasmopara viticola [4]

C#CCOc1ccc(CCNC(=O)C(COc2ccc(Cl)cc2)OCC#C)cc1OC (stereo not shown) [Compound E1.26]
80 to 100%: all assays above
